Results taken from US7183440B2, “Pharmaceutically useful compounds” (priority 2005, dated 2007).
Where two headings read alike, the source gives them in different places.

Assays:
HSF1 = settings: cited from earlier work
NF-κB [1] = settings: at the same concentration (125–500 μM); cited from earlier work
NF-κB [2] = assay: Luciferase activity of NF-κB-LUC transfected HeLa cell pool after stimulation; type: cell-based, human; settings: resistant HeLa cell pool, quadruplicate samples; control 1369±149
Text: (§1) The fragment Kpn I-BamH I from the pGL3 basic vector containing the luciferase gene (PROMEGA) was inserted in the pcDNA3 vector (INVITROGEN) digested with Bgl II-KpnI. (This digestion removes the CMV-promoter from pcDNA3.) The resulting new vector was digested with Kpn I-Hind III and a promoter containing a ‘5×NF-κB binding sites-TATA box’ sequence was inserted upstream of the luciferase gene. This vector has been named STM.
(§2) To obtain stable HeLa cell lines expressing the luciferase gene under the control of NF-κB, HeLa cells were transfected (using lipofectamine plus GIBCO) with the STM-Pvu I linearized vector, and selected for 20 days with G418 (800 μg/ml). After selection, the resistant HeLa cell pool was controlled (in quadruplicate samples) for luciferase activity after stimulation with TNFα, IL-1 and TPA.

HSF = HSF activation, luciferase reporter controlled by the human hsp70 promoter in HeLa cell clone 13B; type: cell-based; settings: read-out: HSF AC200/μM
Method: (§3) HeLa cell clone 13B, stably transfected with a luciferase reporter plasmid controlled by the human hsp70 promoter, and HeLa κB-transformed cells, stably transfected with a luciferase reporter plasmid controlled by a synthetic NF-κB-STM construct, were maintained in DMEM medium supplemented with 10% FBS, L-glutamine (2 mM) and G418 (250 μg/ml) at 37° C. in a 5% CO2 humidified atmosphere.
(§4) Cells were seeded at a density of 4×10^4 cells/well in 96-well plates. After 18–20 h, the medium was removed and cells were treated for 8 h with the test compounds (100 μl) at the appropriate dilutions in serum-free medium. For the NF-κB-dependent reporter gene assay, cells were stimulated with TPA (25 ng/ml) 2 h after exposure to the compounds.
(§5) After incubation, the medium was removed and cells were lysed in 10 μl of lysis buffer. The luciferase activity was determined by adding 100 μl of substrate and measuring the release of light using a Victor 1420 microplate reader (Wallac, Finland).
(§6) The AC200/μM for HSF is the concentration at which the tested compound doubled the HSF activity in this assay. The IC50/μM for NF-κB is the concentration at which the tested compound halved the NF-κB activity in this assay. […] The LC50/μM is the concentration at which the tested compound killed half the cells in each assay. […] (n.d. means not done)

in vitro [3] = type: cell-based; settings: human
Method: HeLa cells were plated in 96-well microtiter plates in 100 μl culture medium (4×10^4/well). After 20 hours, the cells were exposed to the test compounds at different dilutions and incubated for the next 8 h at 37° C. in a 5% CO2 humidified atmosphere. After 6 h incubation, the Alamar Blue was added in an amount equal to 10% of the culture volume (10 μl). Two hours after the addition of the Alamar Blue, the fluorescence was measured using a Victor 1420 microplate reader.

Monkey kidney 37RC cells = type: cell-based; settings: concentration 100% toxic to uninfected 37RC cells, visually by microscopy
NF-κB [4] = assay: NF-κB-dependent luciferase reporter gene assay in HeLa κB-transformed cells stimulated with TPA; type: cell-based, human
Method: as §3, §4, §5, §1, §2, §6

in vitro [5] = type: cell-based; settings: monkey, 50% lethal dose/concentration, neutral red assay, 37RC cells, read-out: LC50/μM
Method: Cell viability was determined using the Neutral Red assay.

Sendai virus = assay: Replication of Sendai virus in 37RC cells, virus yield by haemagglutinin titration; type: cell-based; settings: Respirovirus muris; 50% inhibitory dose/concentration at 24 hours, Sendai virus in 37RC cells; read-out: ID50/μM
Method: Monkey kidney 37RC cells were grown at 37° C. in RPMI medium supplemented with 5% foetal bovine serum (FBS), L-glutarine (2 mM) and antibiotics. Sendai virus was grown in the allantoic cavity of 10-day-old embryonated eggs. Viral titre was expressed in haemagglutinating units (HAU) per ml; haemagglutinin titration was done according to standard procedures, as described in C. Amici et al. (J. Virol. 68: 6890–6899, 1994). […] Confluent 37RC monolayers were infected with Sendai Virus (5 HAU/ml) for 1 h at 37° C. After 1 hour incubation, viral inoculum was removed and cells were treated with the test compounds at different concentrations. Virus yields were determined 24 h post infection by haemagglutinin titration. Mock-infected cells were treated identically and processed for cytotoxicity assay (Neutral Red assay) at the same time (see below). The results were expressed as HAU/ml (each point represents the mean of duplicate samples).

[6] = Blood pressure of the anaesthetized rat, intravenous infusion; type: in vivo; settings: doses from 30 μg/kg/min
Text: Most prostaglandins have strong effects on vascular smooth muscle, and will lower blood pressure in animals and humans. A compound can be tested for its effect on the blood pressure of the anaestheized rat. Prostaglandins A1 and E1 can be used for comparison. Male Wistar rats were anaesthetized and test drugs can be infused intravenously. Blood pressure and heart rate can be recorded from the femoral artery. […] It can be determined whether or not a test compound affects blood pressure at various dosages. As a control, solvent alone can be used.

HeLa cells = assay: in vitro; settings: read-out: Toxicity Neutral Red LC50/μM; HeLa cells; concentration that killed half the cells
Method: This assay was carried out on HeLa cells using a technique analogous to that described below in Example 36(b) for Monkey Kidney 37RC cells.
as §6
Cell viability was determined using the Neutral Red assay. 37RC cells were seeded at density of 6×10^4 cells/well in 24-well plates and incubated for 24 h. Confluent 37RC monolayers were treated with the test compounds at different dilutions for 24 h at 37° C. After incubation, the medium was removed and the cells were incubated with RPMI medium containing 40 μg/ml Neutral Red dye (500 μl/well). After 2 h at 37° C., the monolayers were washed with phosphate-buffered saline (PBS) and then with a solution containing 1% CaCl2 and 0.5% formaldehyde. After washing, a solution containing 1% acetic acid/50% ethanol was added to the monolayers (250 μl/well). After 10 min at room temperature, the absorbance was determined with a microplate reader (Victor 1420, Wallac) at 540 nm.

In the case of `O=C1C=CCC1` [cyclopent-2-en-1-one], the “concentration able to activate HSF1 and trigger synthesis of HSP70” value (HSF1) is listed as 125 to 500 µM and the “block of NF-κB activation by chemical or physiological inducers” value (NF-κB [1]) is listed as “able to block NF-κB activation”.

For `CCCCCCCCCCCCCC(=O)O[C@@H]1[C@@H](C)[C@@]2(O)[C@@H](C=C(CO)C[C@]3(O)C(=O)C(C)=C[C@@H]23)[C@H]2C(C)(C)[C@]12OC(C)=O` [TPA], the luciferase activity (NF-κB [2]) was 7181±444.

Work on TNFα yielded a luciferase activity (NF-κB [2]) of 6111±1231.

`CC(C)/C=C1/C(=O)C=CC1NC(=O)c1ccccc1` (stereo not drawn) [CTC-172, N-(5-iso-Butylidene-4-oxocyclopent-2-enyl)-benzamide] gave an EC (2-fold HSF activity) (HSF; Homo sapiens, concentration at which the compound doubled HSF activity, HeLa clone 13B, 8 h treatment) of under 6.2 µM, a CC50 at 8 h (in vitro [3]) of 50 µM and a TD100/μM (Monkey kidney 37RC cells) of 10 µM. It also gave an IC50 (NF-κB [4]; Homo sapiens, concentration that halved NF-κB activity, HeLa reporter cells, TPA 25 ng/ml, 8 h treatment) of under 6.2 µM, a CC50 at 24 h (in vitro [5]) of 4 µM and an IC50 (Sendai virus) of 0.3 µM.

With `CCCCC[C@H](O)/C=C/[C@H]1[C@H](O)CC(=O)[C@@H]1CCCCCCC(=O)O` [Prostaglandin E1] the “effect on blood pressure” value [6] was “dose-dependant falls in blood pressure”.

For `CCCCC[C@H](O)/C=C/[C@H]1C=CC(=O)[C@@H]1CCCCCCC(=O)O` [Prostaglandin A1], the “effect on blood pressure” value [6] was “dose-dependant falls in blood pressure”.

With “[(1R,2R)-2-(Naphthalen-2-ylsulfanyl)-4-oxocyclopentyl]-carbamic acid methyl ester; compound with benzene [CTM-238]” the EC (2-fold HSF activity) (HSF) was 26 µM, the CC50 (HeLa cells) was 113 µM and the IC50 (NF-κB [4]) was 17 µM.
